According to US6365187B2, “Bioadhesive microspheres and their use as drug delivery and imaging systems” (priority 1992, dated 2002):

Conditions: rat, in vivo
Description: The animals were then housed in metabolic cages and the feces were collected every three hours for a period of four days. At given time intervals, the rats were X-rayed, and the distribution of the microspheres in the stomach and in the intestine was followed. The collected feces were also X-rayed in order to monitor the total transit time of the microspheres through the GI tract.
Tests were conducted in areas of distinct pH and physiology: the stomach (low pH range), and the intestine (basic environment, pH ranging from 5-7, in the proximal to distal regions, respectively), FIGS. 6a, 6b, and 6c.

Question: With alginate as the substance, how does the “retention time in the intestine, ranking” value read?
Answer: longest retention time from the group of hydrogels
